In US12129488B2, “Production of brown adipocytes” (SOCIETE DES PRODUITS NESTLE S.A., priority 2018, dated 2024):

What was measured:
[1] = tested on: human brown adipocytes (hiPSC derived BA cells); assay: PET-SCAN imaging of labelled glucose in explanted devices from mice implanted with encapsulated human brown adipocytes; assay type: in vivo; details: mice implanted with brown adipocytes and injected with FSK vs not stimulated; three weeks post-implantation
Experimental: Two groups of mice were implanted with human brown adipocytes (hiPSC derived BA cells) produced by the methods of the present invention and encapsulated in a device subcutaneously. In one group, the mice were injected with forskolin (FSK) to stimulate the brown adipocytes. In the other group, the mice implanted with brown adipocytes were not stimulated by FSK. A control group of mice was implanted with an empty device. All groups were assessed after three weeks post-implantation for in vivo PET-SCAN imaging as well as ex vivo PET-SCAN imaging of the explanted device.

[2] = tested on: human BA cells (hiPSC derived brown adipocytes); assay: Calorimetric/respiration measurements in mice implanted with human BA cells after NE stimulation; assay type: in vivo; details: implanted with human BA cells vs empty devices, one week post-implantation
Experimental: Measures of respiration quotient (DeltaVO2) of mice implanted with human BA cells (IBAT) or empty devices (EMPTY) treated with Norepinephrine (NE) for 1 hour. The mice are either surgically depleted for endogenous murine BA tissue (BATr) or treated at thermo-neutrality to inactivate the endogenous murine BA tissue (Therm). Calorimetric analyses were performed on group of mice implanted with encapsulated human brown adipocytes or empty devices. One group of mice was depleted of endogenous murine BA tissue by surgery and another group was maintained at thermoneutrality for inactivation of the endogenous murine BA tissue. The two groups were implanted with either human BA cells (hiPSC derived brown adipocytes) or empty devices. After one week post-implantation, each group of mice was stimulated with Norepinephrine (NE) (BA stimulation) to assess uncoupled respiration increase. The four sub-groups were analysed for calorimetry measurements as a readout of the respiration index induced by human brown adipocytes.

[3] = tested on: paraxial mesoderm cells; assay: Brown adipocyte differentiation of dissociated paraxial mesoderm cells in BAD1/BAD2 medium; assay type: cell-based, human; details: SB431542 included in BAD1 medium, 2D culture of dissociated paraxial mesoderm cells
Experimental: Proceeding from monolayer of pluripotent stem cells (PSC) to spherical culture (Sph) to primitive streak (PS) to paraxial mesoderm (PM). Cells are then dissociated and cultured in 2D in specific BAD1 medium that contains TGFβ signalling inhibitor, SB431542 which is an activin inhibitor. […] In a second step, cells are cultured in BAD2 medium allowing TGFβ signalling to be active as SB431542 is removed.
(§1) Brown adipocyte (BA) differentiation was accomplished using two sequential media formulations designated BAD1 and BAD2. BAs were derived by first dissociating the PM spheres into single-cell suspension. Briefly, PM spheres were removed from the suspension plates and allowed to gravity sediment in a conical tube. The medium was aspirated carefully and the spheres gently washed once with excess DPBS without calcium or magnesium. The spheres were allowed to settle and the DPBS aspirated. The spheres were resuspended in 5 mL of RT Accumax® (Innovative Cell Technologies, San Diego, CA) and placed on a single speed rotating mixer for 20-30 minutes until a single-cell suspension was achieved. The cells were subsequently filtered through a 100 μm filter (ThermoFisher, Waltham, MA) into a 50 mL conical tube, washed with DPBS and centrifuged at 200 g for 4 minutes at RT; the resulting supernatant was aspirated and the cells resuspended in BAD1 medium for counting using a haemocytometer. […]

[4] = tested on: UCP1; assay: UCP1 expression analysis (qPCR), long term versus short term SB431542 exposure during BA differentiation; assay type: cell-based, human; details: continued use of SB431542 instead of removal in BAD2 medium
Experimental: UCP1 expression analysis between long term (+SB) or short term (−SB) SB431542 exposure. Long term SB exposure includes SB431542 in the medium during the entire BA differentiation beginning immediately after plating dissociated paraxial mesoderm cells. Short term SB exposure includes SB431542 in the medium during only the first 8 days beginning immediately after plating dissociated paraxial mesoderm cells. Those samples marked “+FSK” received 10 μM Forskolin for 4 hours. Day numbers are the number of days after paraxial mesoderm differentiation. All samples are relative to iPSC using 18S rRNA as the endogenous control.
as §1, with “achieved.” for “achieved. The cells were subsequently filtered through a 100 μm filter (ThermoFisher, Waltham, MA) into a 50 mL conical tube, washed with DPBS and centrifuged at 200 g for 4 minutes at RT; the resulting supernatant was aspirated and the cells resuspended in BAD1 medium for counting using a haemocytometer.”

`C=C[C@@]1(C)CC(=O)[C@]2(O)[C@@]3(C)[C@@H](O)CCC(C)(C)[C@@H]3[C@H](O)[C@H](OC(C)=O)[C@@]2(C)O1` [FSK, forskolin] was tested, and the “signal of labelled glucose, PET-SCAN imaging ex vivo” value [1] was “increased signal of labelled glucose”.
`NC[C@H](O)c1ccc(O)c(O)c1` [NE, Norepinephrine] was tested, and the “respiration index (calorimetry)” value ([2]; mice at thermoneutrality) was “slightly but not significantly improved” and the “respiration index (calorimetry)” value ([2]; mice surgically depleted of endogenous murine BA tissue) was “significant increased respiration index”.
In the case of `NC(=O)c1ccc(-c2nc(-c3ccc4c(c3)OCO4)c(-c3ccccn3)[nH]2)cc1` [SB431542], the “appearance of vascular endothelium and cardiac myocyte development from contaminating lateral plate mesoderm” value [3] is reported as “reduces appearance of vascular endothelium and cardiac myocyte development” and the “kinetics of differentiation and UCP1 induction and expression” value [4] is reported as “retards proper kinetics and perturbs proper UCP1 induction and expression”.
